Results as given in publication PMC6149971, “In Vivo and In Vitro Activities and ADME-Tox Profile of a Quinolizidine-Modified 4-Aminoquinoline: A Potent Anti-P. falciparum and Anti-P. vivax Blood-Stage Antimalarial” (Molecules : A Journal of Synthetic Chemistry and Natural …, 2017).
Values joined by “and” are separate entries in the source; they are usually repeats but may differ in a detail not shown here. Equal values may be shown once. Read-outs that look alike come from different tables or passages of the source.

Tests used:
hERG = target: T1, hERG (Homo sapiens, UniProt Q12809); assay: hERG [3H]-astemizole radioligand binding assay; conditions: HEK293 cell membranes, preliminary experiments
T1 construct: expressed in transfected cells
Method: [^3H]-astemizole (PerkinElmer ITALIA Spa, Milan, Italy) radioligand binding assays were performed in HEK293 cells membranes stably transfected with the hERG (U04270); non-specific binding was evaluated in the presence of an excess of 10 µM cold astemizole. Experiments were performed at 22 °C for 60 min in triplicate and compounds tested in a range from 0.03 µM to 30 µM. Two separate experiments were performed and data analyzed with non-linear fitting using a four-parameter logistic.

P. falciparum W-2 (CQ-R) = system: P. falciparum W-2 (CQ-R); parameters: method as in PMID 22901673; conditions: 72 h incubation, pLDH method, mean of 3 experiments; data already published; cited from earlier work
P. berghei ANKA = assay: Standard four-day suppressive test, P. berghei; assay type: in vivo; conditions: CD1 mice, oral, once a day for four days, parasitaemia on day 4
Method: Groups of five CD1 mice were inoculated i.v. with 4 × 10^6 infected erythrocytes/mice. The compound, dissolved in standard suspending formula (SSV) (0.5% sodium carboxymethylcellulose, 0.5% benzyl alcohol, 0.4% Tween 80, 0.9% NaCl), was administered orally, once a day for a period of four days, starting two hours post-infection. […] Parasitaemia was determined by microscopic examination of Giemsa-stained blood films taken on day four, processed using MICROSOFT® EXCEL spreadsheets (Microsoft Corp., Redmond, WA, USA), and expressed as percentages of inhibition from the arithmetic mean parasitaemias of each group in relation to the untreated group. ED50 and ED90 values were calculated by GraphPad Prism 6 (GraphPad Software Inc, La Jolla, CA, USA).

P. vivax field isolates = assay: In vitro assay against P. vivax field isolates; assay type: cell-based; conditions: for IC50: read-out: P. vivax IC50, field isolates
From the text: Ten P. vivax isolates were collected from June to July 2010 from malaria patients attending the Shoklo Malaria Research Unit (SMRU) clinics, Mae Sot region of the Tak Province in north-western Thailand under the ethical guidelines in the approved protocol OXTREC 027-05 (Centre for Clinical Vaccinology and Tropical Medicine, University of Oxford, Oxford, UK). These samples were collected from patients with no prior antimalarial therapy and with microscopically confirmed P. vivax. After written consent, blood samples were collected by venepuncture in 5 mL volume lithium heparinized tubes, which were then transported to the laboratory at SMRU within 5 h of collection. The ten isolates were chosen for testing because the majority (>80%) of the parasites were at the mid trophozoite stage (around 20 h post invasion) and no schizonts were detected.

[1] = Pharmacokinetics in CD-1 mice after oral administration; assay type: in vivo, mouse
Method: Samples from the pharmacokinetic studies were analyzed under the following conditions: UPLC interfaced with a Premiere XE triple Quadrupole, Waters. A gradient from 2 to 100% (Water, MeOH, 5 mM Ammonium Acetate) over 1.3 min was used in Acquity HSS T3 (dimensions 2.1 by 50 mm, 1.8 µm column, 40 °C temperature, flow rate 0.5 mL/min). Detection was performed in MRM (ESI positive, Q1/Q3 330.16/152.00, Cone Voltage 45 V; Extractor 5 V; Capillary 3.4 kV). The limit of detection was 1 ng/mL. Pharmacokinetic parameters were determined by Non-Compartmental Analysis, using the linear trapezoidal rule and uniform weight.
Pharmacokinetic data were collected in mice by testing the racemate and the enantiomers at the same single dose, and vehicle-utilized for in vivo studies (see composition in paragraph 4.4). Briefly, male CD-1 mice (Charles River Laboratories) weighing 18–22 g received single dose (10 mg/kg) oral administrations of the AM1 racemate and single enantiomers, each dissolved in SSV. For each experiment, twenty-four mice/dose and three mice/time-point were used. Blood samples were collected at eight selected time-points (15, 30 and 60 min; 2, 4, 6, 8 and 24 h) under ethyl ether anaesthesia. The heparinized tubes containing blood samples were immediately placed on ice and centrifuged, and the supernatant collected and frozen at −80 °C prior to analysis. Pharmacokinetic plasma samples (spiked with internal standard) were filtered (Sirocco filter plate, Waters) under vacuum, and 5 µL analysed by LC-MS/MS.

P. falciparum D10 (CQ-S) = system: P. falciparum D10 (CQ-S); parameters: method as in PMID 22901673; conditions: 72 h incubation, pLDH method, mean of 3 experiments; data already published; cited from earlier work
CYP3A4 = CYP3A4 (Homo sapiens, UniProt P08684); assay: in vitro
CYP2C9 = CYP2C9 (Homo sapiens, UniProt P11712); assay: in vitro
CYP1A2 = target: T2, CYP1A2 (Homo sapiens, UniProt P05177); assay: in vitro
T2 sequence (P05177 1-516): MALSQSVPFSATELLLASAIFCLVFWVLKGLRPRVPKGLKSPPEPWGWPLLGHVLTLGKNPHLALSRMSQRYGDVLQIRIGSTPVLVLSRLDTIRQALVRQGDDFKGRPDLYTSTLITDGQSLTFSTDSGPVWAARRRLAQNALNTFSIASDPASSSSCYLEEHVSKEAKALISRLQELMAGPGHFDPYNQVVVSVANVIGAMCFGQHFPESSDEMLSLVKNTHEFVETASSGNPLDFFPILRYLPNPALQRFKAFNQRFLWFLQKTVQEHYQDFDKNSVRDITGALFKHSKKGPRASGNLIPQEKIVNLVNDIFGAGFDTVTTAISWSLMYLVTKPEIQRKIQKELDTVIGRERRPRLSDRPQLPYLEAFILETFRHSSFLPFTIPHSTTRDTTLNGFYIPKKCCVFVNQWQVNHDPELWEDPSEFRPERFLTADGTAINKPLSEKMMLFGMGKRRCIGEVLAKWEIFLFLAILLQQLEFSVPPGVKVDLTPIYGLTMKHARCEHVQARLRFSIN

CYP2D6 = CYP2D6 (Homo sapiens, UniProt P10635); assay: in vitro
CYP2C19 = CYP2C19 (Homo sapiens, UniProt P33261); assay: in vitro
[2] = parameters: method as in PMID 19651905; conditions: pH 7.4; cited from earlier work
[3] = system: chloroquine-sensitive and resistant P. falciparum strains; assay: In vitro antimalarial activity, range over the strain panel; assay type: cell-based; conditions: D10, W-2, FCR1, FCR3, TM91C235; range over strains and forms; read-out: IC50 range against CQ-S and CQ-R P. falciparum strains
[4] = Microsome stability and metabolism studies, mouse; assay type: in vitro ADME; parameters: key: +: Metabolic Products Detected In Vitro and In Vivo; ND: Not detectable; conditions: (−)-AM1 1 μM, at 30 min
Method: (§1) Samples from the metabolic stability and metabolism studies were analyzed under the following conditions: UPLC interfaced with a Premiere XE triple Quadrupole Waters for stability studies, and Bruker Daltonics Ion Trap HCT Ultra for metabolic studies. A gradient from 2% to 100% (Water, MeOH, 5 mM Ammonium Acetate) over 2 min (stability) or 12 min (metabolism) in a C18 BEH (dimensions 1 by 50 mm for stability and 2.1 by 100 mm for metabolism, 1.7 µm column, 45 °C temperature, flow rate 0.5 mL/min) was used. For stability studies, the detection was performed in MRM (ESI positive, Q1/Q3 330.16/152.00, Cone Voltage 45 V; Extractor 5 V; Capillary 3.4 kV), while for metabolism studies, analysis was performed in Auto MS/MS mode (ESI positive; Capillary 109 V; Dry Temp 350 °C; Nebulizer 30 psi; Dry gas 10 L/min; HV capillary 500 V; Mass Accu time 500 µs; Mass range MS scan 100–600 amu, MS/MS 50–450 amu).
(§2) For stability and metabolism studies, test compounds were dissolved in DMSO, diluted at the final concentration of 1 µM, and pre-incubated in duplicate for 10 min at 37 °C in potassium phosphate buffer, pH 7.4, 3 mM MgCl2, with rat, mouse, and human hepatic microsomes (Xenotech Europe, Pfungstadt, Germany) at the final concentration of 0.5 mg/mL. The reaction was then started by adding the cofactor mixture of NADP, Glc6P, and G6P-DH, in the presence of UDPGA 1 mM in human microsomes to promote glucuronide formation. Acetonitrile (with verapamil as internal standard) was added to the samples at the times time 0 and 30 min to stop the reaction. Samples were then centrifuged and the supernatants analysed and quantified by LC-MS/MS. Reference compounds of known metabolic stability, 7-ethoxycoumarin (7-EC) and propranolol, were used as controls.
(§3) The percentage of the area of test compounds remaining after 30 min incubation was calculated in respect to the area of compounds at time = 0 min. […] Samples were re-analyzed by acquiring the daughter scan of the potential metabolites found during the full scan acquisition.

[5] = Microsome stability and metabolism studies, human; assay type: in vitro ADME; parameters: key: +: Metabolic Products Detected In Vitro and In Vivo; ND: Not detectable; conditions: (−)-AM1 1 μM, at 30 min
Method: (§4) Samples from the metabolic stability and metabolism studies were analyzed under the following conditions: UPLC interfaced with a Premiere XE triple Quadrupole Waters for stability studies, and Bruker Daltonics Ion Trap HCT Ultra for metabolic studies. A gradient from 2% to 100% (Water, MeOH, 5 mM Ammonium Acetate) over 2 min (stability) or 12 min (metabolism) in a C18 BEH (dimensions 1 by 50 mm for stability and 2.1 by 100 mm for metabolism, 1.7 µm column, 45 °C temperature, flow rate 0.5 mL/min) was used. […]
For stability and metabolism studies, test compounds were dissolved in DMSO, diluted at the final concentration of 1 µM, and pre-incubated in duplicate for 10 min at 37 °C in potassium phosphate buffer, pH 7.4, 3 mM MgCl2, with rat, mouse, and human hepatic microsomes (Xenotech Europe, Pfungstadt, Germany) at the final concentration of 0.5 mg/mL. […] Samples were then centrifuged and the supernatants analysed and quantified by LC-MS/MS. […]
as §3

[6] = Microsome stability and metabolism studies, rat; assay type: in vitro ADME; parameters: key: +: Metabolic Products Detected In Vitro and In Vivo; ND: Not detectable; conditions: (−)-AM1 1 μM, at 30 min
Method: as §1, §2, §3

[7] = Metabolites in mouse plasma after oral treatment; assay type: in vivo; parameters: key: +: Metabolic Products Detected In Vitro and In Vivo; ND: Not detectable; conditions: after 50 mg/kg (−)-AM1 oral gavage, at 120 min
Method: A representative chromatogram in the mouse and the MS spectra are shown in Figure S1 (Supplementary Materials), while the proposed structures of metabolites in all the species, together with the retention times, are shown in Table 3. In the same table, the metabolites found in mouse plasma after 50 mg/kg oral treatment are included. The retention times and [M + H]^+ of the metabolites are the same for all three species.
The parent [M + H]^+ = 330 and the metabolites [M + H]^+ = 346 and [M + H]^+ = 344 were also detected in the mouse plasma samples collected after oral treatment of CD1 mice with 50 mg/kg of (−)-AM1 (Figure S4).
as §4

[8] = system: P. falciparum TM91C235 (multidrug-resistant); assay: In vitro chemosensitivity assay (pLDH), TM91C235 strain; assay type: cell-based; conditions: Plasmodium falciparum, 72 h, read-out: P. falciparum IC50, TM91C235
[9] = Maximum tolerated dose in CD1 mice; conditions: CD1, mouse, in vivo, ip
[10] = system: P. falciparum FCR1 (CQ-R); assay: In vitro chemosensitivity assay (pLDH), FCR1 strain; assay type: cell-based; conditions: Plasmodium falciparum, 72 h, read-out: P. falciparum IC50, FCR1
[11] = system: P. falciparum FCR3 (CQ-R); assay: In vitro chemosensitivity assay (pLDH), FCR3 strain; assay type: cell-based; conditions: Plasmodium falciparum, FCR3, 72 h, read-out: P. falciparum IC50, FCR3
[12] = 10 field isolates from the Thai–Burmese border, mean
[13] = CD-1 mice, 10 mg/kg oral, single dose in SSV, plasma
[14] = male, CD-1, mouse, in vivo, po, 10 mg/kg

Chain of CYP3A4 (P08684 whole entry): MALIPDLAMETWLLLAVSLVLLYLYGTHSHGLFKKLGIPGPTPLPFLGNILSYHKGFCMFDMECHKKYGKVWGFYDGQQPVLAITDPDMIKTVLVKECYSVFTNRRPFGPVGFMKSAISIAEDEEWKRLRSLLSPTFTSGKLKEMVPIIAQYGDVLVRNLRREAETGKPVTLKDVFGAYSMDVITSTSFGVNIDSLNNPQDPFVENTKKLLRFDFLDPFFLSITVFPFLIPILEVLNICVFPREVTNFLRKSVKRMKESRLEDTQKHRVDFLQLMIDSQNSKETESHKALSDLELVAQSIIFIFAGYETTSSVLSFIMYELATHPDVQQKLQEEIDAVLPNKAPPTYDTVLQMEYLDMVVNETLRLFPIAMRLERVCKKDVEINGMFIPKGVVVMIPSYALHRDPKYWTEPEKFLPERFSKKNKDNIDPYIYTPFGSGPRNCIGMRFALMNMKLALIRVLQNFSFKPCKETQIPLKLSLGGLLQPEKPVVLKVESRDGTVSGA
Chain of CYP2C19 (P33261 whole entry): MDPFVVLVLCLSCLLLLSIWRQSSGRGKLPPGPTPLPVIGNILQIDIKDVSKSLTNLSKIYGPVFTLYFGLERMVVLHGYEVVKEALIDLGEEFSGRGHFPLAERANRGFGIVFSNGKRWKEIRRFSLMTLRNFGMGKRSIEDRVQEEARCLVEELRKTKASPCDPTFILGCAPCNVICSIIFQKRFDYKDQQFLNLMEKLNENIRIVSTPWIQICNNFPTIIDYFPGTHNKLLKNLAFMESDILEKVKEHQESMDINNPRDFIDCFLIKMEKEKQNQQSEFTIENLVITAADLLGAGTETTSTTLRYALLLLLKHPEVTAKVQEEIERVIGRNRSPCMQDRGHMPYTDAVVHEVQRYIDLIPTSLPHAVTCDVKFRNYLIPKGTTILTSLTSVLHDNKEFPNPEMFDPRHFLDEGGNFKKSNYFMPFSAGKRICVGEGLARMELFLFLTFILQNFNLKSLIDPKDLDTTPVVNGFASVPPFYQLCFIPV
Chain of CYP2D6 (P10635 whole entry): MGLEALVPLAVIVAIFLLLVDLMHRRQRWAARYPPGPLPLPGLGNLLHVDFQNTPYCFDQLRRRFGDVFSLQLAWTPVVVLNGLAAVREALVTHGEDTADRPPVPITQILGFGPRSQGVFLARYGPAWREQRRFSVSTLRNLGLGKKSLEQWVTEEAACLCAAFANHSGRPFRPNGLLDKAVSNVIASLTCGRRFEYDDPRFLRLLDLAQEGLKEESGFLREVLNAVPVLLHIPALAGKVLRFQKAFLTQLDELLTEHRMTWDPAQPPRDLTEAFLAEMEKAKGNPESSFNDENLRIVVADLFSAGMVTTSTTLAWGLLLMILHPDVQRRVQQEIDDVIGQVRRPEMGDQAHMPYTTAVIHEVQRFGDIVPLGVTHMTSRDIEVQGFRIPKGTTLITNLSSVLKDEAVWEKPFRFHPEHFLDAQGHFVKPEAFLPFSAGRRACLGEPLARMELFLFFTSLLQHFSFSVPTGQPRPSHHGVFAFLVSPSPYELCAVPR
Chain of CYP2C9 (P11712 whole entry): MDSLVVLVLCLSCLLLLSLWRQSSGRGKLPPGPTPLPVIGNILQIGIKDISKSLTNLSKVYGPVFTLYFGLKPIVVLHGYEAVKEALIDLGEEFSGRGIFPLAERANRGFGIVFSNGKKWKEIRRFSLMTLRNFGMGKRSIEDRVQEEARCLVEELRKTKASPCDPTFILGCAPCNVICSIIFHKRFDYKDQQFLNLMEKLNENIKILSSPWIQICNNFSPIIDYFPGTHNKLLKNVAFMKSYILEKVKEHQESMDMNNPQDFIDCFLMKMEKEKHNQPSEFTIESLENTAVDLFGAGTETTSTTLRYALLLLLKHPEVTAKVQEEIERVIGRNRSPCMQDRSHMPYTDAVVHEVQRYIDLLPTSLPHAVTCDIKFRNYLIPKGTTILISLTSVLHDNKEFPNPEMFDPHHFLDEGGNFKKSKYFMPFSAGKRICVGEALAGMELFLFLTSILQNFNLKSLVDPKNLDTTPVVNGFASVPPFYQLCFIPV
T1 sequence (Q12809 whole entry): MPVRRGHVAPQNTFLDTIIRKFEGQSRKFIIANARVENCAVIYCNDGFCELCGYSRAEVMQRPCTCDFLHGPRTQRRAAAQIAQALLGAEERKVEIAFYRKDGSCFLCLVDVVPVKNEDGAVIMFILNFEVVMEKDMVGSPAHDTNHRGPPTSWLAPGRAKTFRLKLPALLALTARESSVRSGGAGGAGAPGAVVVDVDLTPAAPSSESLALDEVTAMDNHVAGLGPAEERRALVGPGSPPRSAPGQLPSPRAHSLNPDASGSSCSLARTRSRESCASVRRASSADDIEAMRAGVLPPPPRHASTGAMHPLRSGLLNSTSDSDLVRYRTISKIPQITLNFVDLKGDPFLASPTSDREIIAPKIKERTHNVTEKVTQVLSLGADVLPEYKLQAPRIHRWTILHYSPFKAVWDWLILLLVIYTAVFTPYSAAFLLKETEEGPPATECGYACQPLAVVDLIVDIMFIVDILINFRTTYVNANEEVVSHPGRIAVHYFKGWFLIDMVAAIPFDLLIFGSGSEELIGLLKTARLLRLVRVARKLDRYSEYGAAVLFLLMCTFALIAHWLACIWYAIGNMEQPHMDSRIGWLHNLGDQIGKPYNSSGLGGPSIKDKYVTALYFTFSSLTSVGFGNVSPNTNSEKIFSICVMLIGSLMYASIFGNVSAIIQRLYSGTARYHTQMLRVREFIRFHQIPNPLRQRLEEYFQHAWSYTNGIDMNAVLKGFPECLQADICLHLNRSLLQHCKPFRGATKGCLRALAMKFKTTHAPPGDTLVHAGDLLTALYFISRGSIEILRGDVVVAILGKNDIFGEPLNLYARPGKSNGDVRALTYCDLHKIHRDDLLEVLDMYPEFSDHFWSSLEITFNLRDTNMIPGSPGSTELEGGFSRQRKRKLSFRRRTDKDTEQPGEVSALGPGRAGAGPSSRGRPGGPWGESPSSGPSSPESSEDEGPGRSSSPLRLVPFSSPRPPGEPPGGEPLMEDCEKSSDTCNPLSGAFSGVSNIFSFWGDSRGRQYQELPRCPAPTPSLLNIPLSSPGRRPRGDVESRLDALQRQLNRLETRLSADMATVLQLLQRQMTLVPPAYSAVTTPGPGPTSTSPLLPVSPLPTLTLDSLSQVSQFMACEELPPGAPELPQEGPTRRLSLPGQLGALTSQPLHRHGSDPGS

Clc1ccc2c(NCC3CCCN4CCCCC34)ccnc2c1 (racemic) [(±)-AM1, 7-chloro-4-(N-lupinyl)aminoquinoline]
Ki (hERG): 500 to 800 nM
IC50 (P. falciparum W-2 (CQ-R)): 35.4 nM
P. berghei ED50 (95% CI) (P. berghei ANKA): 2.77 (1.26–4.29) mg/kg
P. berghei ED90 (95% CI) (P. berghei ANKA): 12.58 (7.69–17.46) mg/kg
IC50 (P. vivax field isolates; [12]): 29.7 nM
potency against P. vivax field isolates relative to CQ (P. vivax field isolates; 10 field isolates, times higher than CQ): about 3 times
MRT last [1, 13]: 3.27 h
Tmax [1, 13]: 0.5 h
AUC last ([1]; CD-1 mice, 10 mg/kg oral, single dose in SSV, plasma, 10 mg/kg): 19.5 min·µM and 6421 min·ng/mL
IC50 (P. falciparum D10 (CQ-S)): 16.1 nM

Clc1ccc2c(NC[C@H]3CCCN4CCCC[C@@H]34)ccnc2c1 [(+)-AM1, 7-chloro-N-(((1R,9aS)-octahydro-1H-quinolizin-1-yl)methyl)quinolin-4-amine]
inhibition at 3 µM (CYP3A4): 14.3 ± 1.9%
IC50 (P. falciparum W-2 (CQ-R)): 35.8 nM
P. berghei ED90 (95% CI) (P. berghei ANKA): 2.03 (1.46–2.60) mg/kg
ED50 (P. berghei ANKA; Plasmodium berghei, 96 h, read-out: P. berghei ED50 (95% CI)): 1.6 mg/kg
AUC(0-t) [1, 14]: 0.382 µM·h and 126 ng·h/mL
Cmax [1, 14]: 108 nM and 35.5 ng/mL
MRT last [1, 14]: 2.7 h
Tmax [1, 14]: 2 h
inhibition at 3 µM (CYP2C9): 11.1 ± 0.5%
inhibition at 3 µM (CYP1A2): 8.3 ± 0.8%
IC50 (P. falciparum D10 (CQ-S)): 17.5 nM
inhibition at 3 µM (CYP2D6): 62.2 ± 1%
inhibition at 3 µM (CYP2C19): 9 ± 1.1%

Clc1ccc2c(NCC3CCCN4CCCCC34)ccnc2c1 (stereo not shown) [AM1, 7-chloro-4-(N-lupinyl)aminoquinoline]
LogD7.4 [2]: 2.26
IC50 (P. vivax field isolates; [12]): 29 nM
IC50 [3]: 16 to 53 nM

O=C(Nc1ccnc2cc(Cl)ccc12)[C@@H]1CCCN2CCCC[C@H]12 [C00002]
Metabolic products detected, in vitro microsomes, mouse [4]: +
Metabolic products detected, in vitro microsomes, human [5]: +
Metabolic products detected, in vitro microsomes, rat [6]: +

[O-][NH+](CC1CCCN2CCCCC12)c1ccnc2cc(Cl)ccc12 (stereo not shown) [C00003]
Metabolic products detected, in vivo plasma levels, mouse [7]: +
Metabolic products detected, in vitro microsomes, mouse [4]: +
Metabolic products detected, in vitro microsomes, human [5]: +
Metabolic products detected, in vitro microsomes, rat [6]: +

CCN(CC)CCCC(C)Nc1ccnc2cc(Cl)ccc12 (stereo not shown) [CQ, chloroquine, reference compound]
IC50 [8]: 199 nM
IC50 (P. falciparum W-2 (CQ-R)): 438 nM
MTD [9]: 50 mg/kg
IC50 (P. vivax field isolates; Plasmodium vivax): 86.7 nM
IC50 (P. falciparum D10 (CQ-S)): 23.7 nM
IC50 [10]: 182 nM
IC50 [11]: 113 nM
